The values that follow come from patent publication US20100041642A1, “UREA INHIBITORS OF MAP KINASES” (LOCUS PHARMACEUTICALS, INC., priority 2008, published 2010).

Each structure is given as a SMILES string. Bounds are passed on as bounds.

Sequence of p38 (Q16539 whole entry, the tested form may be a part): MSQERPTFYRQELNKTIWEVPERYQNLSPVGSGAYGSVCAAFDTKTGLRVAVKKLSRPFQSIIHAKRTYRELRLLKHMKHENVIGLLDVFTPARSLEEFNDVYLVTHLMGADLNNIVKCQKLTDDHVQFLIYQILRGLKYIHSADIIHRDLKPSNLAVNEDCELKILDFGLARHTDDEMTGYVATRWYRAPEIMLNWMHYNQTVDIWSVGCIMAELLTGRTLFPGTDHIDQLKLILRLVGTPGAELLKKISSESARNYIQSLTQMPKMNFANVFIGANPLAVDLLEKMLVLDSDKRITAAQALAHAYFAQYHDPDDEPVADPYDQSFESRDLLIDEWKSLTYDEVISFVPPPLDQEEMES

The target of the test is p38 (Homo sapiens, UniProt Q16539). The experiment in a line: Protein Kinase Assay (33P incorporation from γ-[33P]ATP into GST-ATF-2). The following applies: 2 nM p38, preincubated 20 min at 30° C.; 10 uM cold ATP, 2 uM GST-ATF2, 70 min; read-out: ACT. (Activity), IC50 category in Protein Kinase Assay. Type of test: biochemical. The gist of the method:
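Compounds preincubated 20 min at 30 °C with 2 nM p38; reaction started with 2 uM GST-ATF-2 (aa 19-96) and 10 uM ATP plus γ-[33P]ATP, pH 7.5, 70 min at 30 °C, 2% DMSO. Phosphoric acid stop; 33P-labelled substrate captured on phosphocellulose and counted by scintillation.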
`COc1ccc(-c2cc(C)cc(NC(=O)Nc3sc(C(C)(C)C)cc3C(=O)N3CCNC(=O)C3(C)C)c2)cn1` [1-(5-tert-butyl-3-(2,2-dimethyl-3-oxopiperazine-1-carbonyl)thiophen-2-yl)-3-(3-(6-methoxypyridin-3-yl)-5-methylphenyl)urea]: the IC50 is < 0.1 µM. The value for `CC(C)(C)c1cc(C(=O)N2CCNC(=O)C2(C)C)c(NC(=O)Nc2cccc(-c3cnco3)c2)s1` [1-(5-tert-butyl-3-(2,2-dimethyl-3-oxopiperazine-1-carbonyl)thiophen-2-yl)-3-(3-(oxazol-5-yl)phenyl)urea] was < 0.1 µM. The result for `CC(C)(C)c1cc(C(=O)N2CCNC(=O)C2(C)C)c(NC(=O)Nc2cccc(-c3cccnc3)c2)s1` [1-(5-tert-butyl-3-(2,2-dimethyl-3-oxopiperazine-1-carbonyl)thiophen-2-yl)-3-(3-(pyridin-3-yl)phenyl)urea] reads < 0.1 µM; that for `CC(C)(C)c1cc(C(=O)N2CCNC(=O)C2(C)C)c(NC(=O)Nc2cccc(-c3ccncc3)c2)s1` [1-(5-tert-butyl-3-(2,2-dimethyl-3-oxopiperazine-1-carbonyl)thiophen-2-yl)-3-(3-(pyridin-4-yl)phenyl)urea], < 0.1 µM; that for `Cc1ccc(NC(=O)Nc2sc(C(C)(C)C)cc2C(=O)N2CCNC(=O)C2(C)C)cc1C#N` [1-(5-tert-butyl-3-(2,2-dimethyl-3-oxopiperazine-1-carbonyl)thiophen-2-yl)-3-(3-cyano-4-methylphenyl)urea], < 0.1 µM.

For `C#Cc1cc(NC(=O)Nc2sc(C(C)(C)C)cc2C(=O)N2CCNC(=O)C2(C)C)ccc1C` [1-(5-tert-butyl-3-(2,2-dimethyl-3-oxopiperazine-1-carbonyl)thiophen-2-yl)-3-(3-ethynyl-4-methylphenyl)urea], the IC50 was < 0.1 µM. The result for `COc1ccc(-c2cc(NC(=O)Nc3sc(C(C)(C)C)cc3C(=O)N3CCNC(=O)C3(C)C)cc(F)c2C)cn1` [1-(5-tert-butyl-3-(2,2-dimethyl-3-oxopiperazine-1-carbonyl)thiophen-2-yl)-3-(3-fluoro-5-(6-methoxypyridin-3-yl)-4-methylphenyl)urea] reads < 0.1 µM; that for `CC(C)(C)c1cc(C(=O)N2CCNC(=O)C2(C)C)c(NC(=O)Nc2cccc(N3CCOCC3)c2)s1` [1-(5-tert-butyl-3-(2,2-dimethyl-3-oxopiperazine-1-carbonyl)thiophen-2-yl)-3-(3-morpholinophenyl)urea], < 10 µM.

With `CC(C)(C)c1cc(C(=O)N2CCNC(=O)C2(C)C)c(NC(=O)Nc2ccc(F)c(-c3ccc(OCCN4CCOCC4)nc3)c2)s1` [1-(5-tert-butyl-3-(2,2-dimethyl-3-oxopiperazine-1-carbonyl)thiophen-2-yl)-3-(4-fluoro-3-(6-(2-morpholinoethoxy)pyridin-3-yl)phenyl)urea], the IC50 is < 0.1 µM. The result for `COc1ccc(NC(=O)Nc2sc(C(C)(C)C)cc2C(=O)N2CCNC(=O)C2(C)C)c(C)c1-c1ccncc1` [1-(5-tert-butyl-3-(2,2-dimethyl-3-oxopiperazine-1-carbonyl)thiophen-2-yl)-3-(4-methoxy-2-methyl-3-(pyridin-4-yl)phenyl)urea] reads < 0.1 µM; that for `COc1ccc(NC(=O)Nc2sc(C(C)(C)C)cc2C(=O)N2CCNC(=O)C2(C)C)cc1-c1ccncc1` [1-(5-tert-butyl-3-(2,2-dimethyl-3-oxopiperazine-1-carbonyl)thiophen-2-yl)-3-(4-methoxy-3-(pyridin-4-yl)phenyl)urea], < 0.1 µM; that for `Cc1ccc(NC(=O)Nc2sc(C(C)(C)C)cc2C(=O)N2CCNC(=O)C2(C)C)cc1C#C[Si](C)(C)C` [1-(5-tert-butyl-3-(2,2-dimethyl-3-oxopiperazine-1-carbonyl)thiophen-2-yl)-3-(4-methyl-3-(2-(trimethylsilyl)ethynyl)phenyl)urea], < 0.1 µM.

In the case of `Cc1ccc(NC(=O)Nc2sc(C(C)(C)C)cc2C(=O)N2CCNC(=O)C2(C)C)cc1-c1cnc(N2CCOCC2)nc1` [1-(5-tert-butyl-3-(2,2-dimethyl-3-oxopiperazine-1-carbonyl)thiophen-2-yl)-3-(4-methyl-3-(2-morpholinopyrimidin-5-yl)phenyl)urea], the IC50 was < 0.1 µM. The value for `Cc1ccc(NC(=O)Nc2sc(C(C)(C)C)cc2C(=O)N2CCNC(=O)C2(C)C)cc1C#CCOCCN1CCOCC1` [1-(5-tert-butyl-3-(2,2-dimethyl-3-oxopiperazine-1-carbonyl)thiophen-2-yl)-3-(4-methyl-3-(3-(2-morpholinoethoxy)prop-1-ynyl)phenyl)urea] was < 0.1 µM. The result for `Cc1ccc(NC(=O)Nc2sc(C(C)(C)C)cc2C(=O)N2CCNC(=O)C2(C)C)cc1C#CCN1CCN(C)CC1` [1-(5-tert-butyl-3-(2,2-dimethyl-3-oxopiperazine-1-carbonyl)thiophen-2-yl)-3-(4-methyl-3-(3-(4-methylpiperazin-1-yl)prop-1-ynyl)phenyl)urea] reads < 0.1 µM. In the case of `Cc1ccc(NC(=O)Nc2sc(C(C)(C)C)cc2C(=O)N2CCNC(=O)C2(C)C)cc1C#CCOC1CCOCC1` [1-(5-tert-butyl-3-(2,2-dimethyl-3-oxopiperazine-1-carbonyl)thiophen-2-yl)-3-(4-methyl-3-(3-(tetrahydro-2H-pyran-4-yloxy)prop-1-ynyl)phenyl)urea], the IC50 was < 0.1 µM. The value for `Cc1ccc(NC(=O)Nc2sc(C(C)(C)C)cc2C(=O)N2CCNC(=O)C2(C)C)cc1N1C(=O)CN(C)C1=O` [1-(5-tert-butyl-3-(2,2-dimethyl-3-oxopiperazine-1-carbonyl)thiophen-2-yl)-3-(4-methyl-3-(3-methyl-2,5-dioxoimidazolidin-1-yl)phenyl)urea] was < 0.1 µM.

As for `Cc1ccc(NC(=O)Nc2sc(C(C)(C)C)cc2C(=O)N2CCNC(=O)C2(C)C)cc1C#CCN1CCOCC1` [1-(5-tert-butyl-3-(2,2-dimethyl-3-oxopiperazine-1-carbonyl)thiophen-2-yl)-3-(4-methyl-3-(3-morpholinoprop-1-ynyl)phenyl)urea], the IC50 is < 0.1 µM. The result for `Cc1ccc(NC(=O)Nc2sc(C(C)(C)C)cc2C(=O)N2CCNC(=O)C2(C)C)cc1-c1ccc(N2CCN(C)CC2)cn1` [1-(5-tert-butyl-3-(2,2-dimethyl-3-oxopiperazine-1-carbonyl)thiophen-2-yl)-3-(4-methyl-3-(5-(4-methylpiperazin-1-yl)pyridin-2-yl)phenyl)urea] reads < 0.1 µM; that for `Cc1ccc(NC(=O)Nc2sc(C(C)(C)C)cc2C(=O)N2CCNC(=O)C2(C)C)cc1-c1ccc(CN2CCOCC2)cn1` [1-(5-tert-butyl-3-(2,2-dimethyl-3-oxopiperazine-1-carbonyl)thiophen-2-yl)-3-(4-methyl-3-(5-(morpholinomethyl)pyridin-2-yl)phenyl)urea], < 0.1 µM.

For the molecule `Cc1ccc(NC(=O)Nc2sc(C(C)(C)C)cc2C(=O)N2CCNC(=O)C2(C)C)cc1-c1ccc(N2CCOCC2)cn1` [1-(5-tert-butyl-3-(2,2-dimethyl-3-oxopiperazine-1-carbonyl)thiophen-2-yl)-3-(4-methyl-3-(5-morpholinopyridin-2-yl)phenyl)urea], the IC50 was < 0.1 µM. `Cc1ccc(NC(=O)Nc2sc(C(C)(C)C)cc2C(=O)N2CCNC(=O)C2(C)C)cc1-c1ccc(OCCN2CCNCC2)nc1` [1-(5-tert-butyl-3-(2,2-dimethyl-3-oxopiperazine-1-carbonyl)thiophen-2-yl)-3-(4-methyl-3-(6-(2-(piperazin-1-yl)ethoxy)pyridin-3-yl)phenyl)urea]: the IC50 is < 0.1 µM. The result for `Cc1ccc(NC(=O)Nc2sc(C(C)(C)C)cc2C(=O)N2CCNC(=O)C2(C)C)cc1-c1ccc(OCCN2CCCCC2)nc1` [1-(5-tert-butyl-3-(2,2-dimethyl-3-oxopiperazine-1-carbonyl)thiophen-2-yl)-3-(4-methyl-3-(6-(2-(piperidin-1-yl)ethoxy)pyridin-3-yl)phenyl)urea] reads < 0.1 µM; that for `Cc1ccc(NC(=O)Nc2sc(C(C)(C)C)cc2C(=O)N2CCNC(=O)C2(C)C)cc1-c1ccc(OCCN2CCOCC2)nc1` [1-(5-tert-butyl-3-(2,2-dimethyl-3-oxopiperazine-1-carbonyl)thiophen-2-yl)-3-(4-methyl-3-(6-(2-morpholinoethoxy)pyridin-3-yl)phenyl)urea], < 0.1 µM. The result for `Cc1ccc(NC(=O)Nc2sc(C(C)(C)C)cc2C(=O)N2CCNC(=O)C2(C)C)cc1-c1ccc(OCCCN2CCN(C)CC2)nc1` [1-(5-tert-butyl-3-(2,2-dimethyl-3-oxopiperazine-1-carbonyl)thiophen-2-yl)-3-(4-methyl-3-(6-(3-(4-methylpiperazin-1-yl)propoxy)pyridin-3-yl)phenyl)urea] reads < 0.1 µM. For `Cc1ccc(NC(=O)Nc2sc(C(C)(C)C)cc2C(=O)N2CCNC(=O)C2(C)C)cc1-c1ccc(OCCCc2ccccn2)nc1` [1-(5-tert-butyl-3-(2,2-dimethyl-3-oxopiperazine-1-carbonyl)thiophen-2-yl)-3-(4-methyl-3-(6-(3-(pyridin-2-yl)propoxy)pyridin-3-yl)phenyl)urea], the IC50 was < 0.1 µM. In the case of `Cc1ccc(NC(=O)Nc2sc(C(C)(C)C)cc2C(=O)N2CCNC(=O)C2(C)C)cc1-c1ccc(OCCCN2CCOCC2)nc1` [1-(5-tert-butyl-3-(2,2-dimethyl-3-oxopiperazine-1-carbonyl)thiophen-2-yl)-3-(4-methyl-3-(6-(3-morpholinopropoxy)pyridin-3-yl)phenyl)urea], the IC50 is < 0.1 µM. The value for `Cc1ccc(NC(=O)Nc2sc(C(C)(C)C)cc2C(=O)N2CCNC(=O)C2(C)C)cc1-c1ccc(N2CCN(C)CC2)nc1` [1-(5-tert-butyl-3-(2,2-dimethyl-3-oxopiperazine-1-carbonyl)thiophen-2-yl)-3-(4-methyl-3-(6-(4-methylpiperazin-1-yl)pyridin-3-yl)phenyl)urea] was < 0.1 µM; that for `Cc1ccc(NC(=O)Nc2sc(C(C)(C)C)cc2C(=O)N2CCNC(=O)C2(C)C)cc1-c1ccc(CN2CCOCC2)nc1` [1-(5-tert-butyl-3-(2,2-dimethyl-3-oxopiperazine-1-carbonyl)thiophen-2-yl)-3-(4-methyl-3-(6-(morpholinomethyl)pyridin-3-yl)phenyl)urea] was < 0.1 µM.
